The test system of this assay is pelvic lymph node metastases. Briefly: OSPREY Cohort A: 18F-DCFPyL PET/CT detection of pelvic lymph node metastases vs histopathology. The format is in vivo, men. Particulars: for NPV % (95% CI) / PPV % (95% CI) / Sensitivity % (95% CI) / Specificity % (95% CI): N=252. An excerpt:
Histopathology served as the reference standard to which imaging findings were compared. FIG. 1 provides information regarding the study design and cohorts.
Imaging findings were compared to histopathology as the truth standard.
In OSPREY, 268 patients at high risk for pelvic lymph node metastasis who were planned for initial definitive therapy underwent PyLARIFY imaging. […] PyLARIFY and baseline conventional imaging reader interpretations were compared to pathologic staging of pelvic nodal metastases.

Data on one molecule can be found in patent US20230274811A1, “METHODS OF MAKING PROSTATE CANCER TREATMENT DECISIONS” (Progenics Pharmaceuticals, Inc., priority 2020, published 2023).

Structures are written as SMILES. Values joined by “and” are separate entries in the source; they are usually repeats but may differ in a detail not shown here. Equal entries are not always repeated.

Turning to `O=C(O)CC[C@H](NC(=O)N[C@@H](CCCCNC(=O)c1ccc([18F])nc1)C(=O)O)C(=O)O` [18F-DCFPyL, 2-(3-{1-carboxy-5-[(6-[^18F]fluoro-pyridine-3-carbonyl)-amino]-pentyl}ureido)-pentanedioic acid], for the setting “Cohort A, n=252 evaluable”, the “NPV, range among three readers” value was 81.4-83.8% and 81-84%; the “PPV, range among three readers” value was 78.1-90.5% and 78-91%; the “Sensitivity, range among three readers” value is 30.6-41.9% and 31-42%; the “Specificity, range among three readers” value is 96.3-98.9% and 96-99%. Further, where the note is “Cohort A, restricted to median lymph node metastases >4 mm”, the “Sensitivity, range among three readers” value is listed as 51.7-65.5%. In addition, where the note is “Reader 1”, the “NPV % (95% CI)” value is listed as 84 (80, 89) %; the “PPV % (95% CI)” value is 87 (70, 95) %; the “Sensitivity % (95% CI)” value is listed as 42 (30, 54) %; the “Specificity % (95% CI)” value is on record as 98 (95, 99) %. For the setting “Reader 2”, the “NPV % (95% CI)” value is given as 81 (76, 86) %; the “PPV % (95% CI)” value is recorded as 91 (70, 99) %; the “Sensitivity % (95% CI)” value is 31 (19, 42) %; the “Specificity % (95% CI)” value is reported as 99 (96, 100) %. Further, under “Reader 3”, the “NPV % (95% CI)” value is reported as 83 (78, 87) %; the “PPV % (95% CI)” value is reported as 78 (64, 93) %; the “Sensitivity % (95% CI)” value is listed as 40 (28, 53) %; the “Specificity % (95% CI)” value was 96 (94, 99) %.
